Measurements taken from patent US20220040255A1, “CHEMOTHERAPEUTIC REMODELING OF THE GUT MICROBIOME” (THE SCRIPPS RESEARCH INSTITUTE, priority 2018, published 2022).
Where a SMILES comes first, the peptide text is derived from it. [ ]: non-standard residue; d: D form.

How the values were obtained:
[1] = tested on: gut microbiota from cecum of LDLr−/− mice; assay: in vitro en masse screening assay (cecum culture, 16S rRNA sequencing); format: cell-based; conditions: ranking in remodeling WD gut microbiota toward CHD microbiota composition
Method: We have established the following in vitro compound screening protocol for en masse gut microbiome remodeling. We obtain fresh gut microbiome content from LDLr^-/- mice conditioned for at least two weeks on WD by surgically removing cecum under anaerobic conditions. These samples are then mixed with growth media, distributed in 96-well plates, and incubated overnight in the presence of the test peptides. The activity and selectivity of each peptide for remodeling the gut microbiota community was assessed en masse by 16S rRNA sequencing of each well. A number of challenges had to be addressed in developing this protocol, including inoculum handling, choice of growth media, assay duration, etc. Our current assay culture condition maintains 50 bacterial genera (overnight culture), which is fairly representative of the 67 genera found in the uncultured community (Table 2). We used a distance scoring algorithm for a more refined compound selection, in which peptides that remodel the microbiota community most completely from the dysfunctional state (WD fed) toward the functional state (CHD fed) are scored higher. Briefly, we first eliminate cyclic D,L-α-peptides that have broad-spectrum antibacterial activity (inhibit >95% of growth of ≥25% of species in the community). The remaining compounds are then ranked based on how well they suppressed the bacterial species that grew in abundance in WD-fed mice. […] Among these, 40 genera decreased while 14 genera increased in abundance by WD feeding. Within the increased 11 genera, there were 19 bacterial species that were also present in our in vitro culture system. Accordingly, compounds were scored highly when they reduced the levels of 19 bacterial species (lowest summed differences in relative abundance) that were increased by WD feeding to be more similar to their levels in a CHD-fed microbiome (see Table 3 for peptide ranking). Based on these analyses, we chose two peptides for further in vivo validation and efficacy studies: the cationic peptide 1, […] NO:1), and the neutral peptide 11, […] NO:11), which ranked high within their respective peptide clusters. In vitro cecum culture and peptide screening. We screened a number of parameters to optimize the in vitro culture condition for maximal bacterial diversity in liquid culture, including a survey of several different growth media, dilution factors for plate inoculation, and incubation times; further details of the development of this in vitro screen will be reported elsewhere. Female LDLr^-/- mice (8-10 weeks of age) were fed a WD for two weeks. Cecum harvest and all assay steps were performed under anaerobic conditions (Coy Laboratory anaerobic chamber). Cecum contents from three mice were pooled for the assay to provide enough material and to minimize the individual variation in gut microbiome. Cecum contents were suspended in PBS (1.5 ml PBS per 100 mg of cecum content). The mixture was vortexed for 5 min and the supernatant was transferred to a new tube. The cecum content mixture was further diluted in Chopped Meat Carbohydrate Broth (BD 297307) for in vitro peptide screening. […] The concentration of peptide stock in DMSO was calculated based on A280 measurement. For each peptide, an initial 20 mM stock was made in DMSO and diluted to 1 mM in 10% sucrose. From that, a 0.64 mM peptide dilution in 10% sucrose was prepared, and each peptide was further diluted into the assay for peptide screening at two concentrations (64 μM and 16 μM). Bacterial DNA was harvested after 24-hour peptide treatment and isolated with Microbial DNA isolation kit (Mo Bio) following the manufacturer's instructions. 16S rRNA gene sequencing and processing. PCR amplicons of the V3-V4 16S rRNA region were amplified and sequenced using an Illumina MiSeq platform. […]

[2] = plasma cholesterol and lipoprotein profile; format: in vivo, LDLr−/− mice; conditions: for reduction in cholesterol in the CHD mice: CHD-fed mice; for HDL-cholesterol levels / levels of VLDL and LDL / reduction of plasma total cholesterol compared to the untreated WD group: WD; for HDL-cholesterol levels / levels of VLDL and LDL: peptide-treated animals; for reduction of plasma total cholesterol compared to the untreated WD group: two-week time point, oral administration
Method: Animals and diets. LDL receptor-null (LDLr^−/−) mice on a C57BL/6J background were initially purchased from Jackson Laboratories (Bar Harbor, Me.) and were bred in house. Unless otherwise noted, all experiments were performed with 8-12 weeks old LDLr^−/− female mice. For studies involving analysis of the gut microbiome, the mice were rotated between cages and co-housed with the mice from different groups for at least one week before the beginning of each study to reduce the variation in the composition of gut microbiome caused by the housing environment. The mice were weaned at 4 weeks of age and were fed ad libitum a standard chow diet (Harlan Teklad 7019) until they were 10-weeks old, when they were switched to a high-fat diet (WD) containing 15.8% (wt/wt) fat, 1.25% (wt/wt) cholesterol, and no cholate (Harlan Teklad 94059). At the time that the WD was started, the cyclic peptide was added to the drinking water at a dose of 180 μM and the mice (female, n=8 per dosing group) were continued on WD for 10 weeks. The lyophilized peptide was dissolved in PBS (pH 7.4) containing 1% sucrose, resulting in a clear solution. The drinking water solution was replaced with fresh solution daily for c[wLwReQeR] (SEQ ID NO:11) or every other day for c[wLwKhShK] (SEQ ID NO:1). A control group of eight mice (female, n=8) was fed WD and provided vehicle (PBS with 1% sucrose) drinking water. The mice consumed approximately 4.0 mL of water per day per mouse, and there was no significant difference in water or food consumption between groups. All procedures involving live animals were approved by the Scripps Research Institute Institutional Animal Care and Use Committee.
Measurement of plasma cholesterol and liver enzyme activities. The mice were bled after an overnight fast after 2 and 10 weeks of treatment. The plasma samples were used to determine lipoprotein profiles and the levels of cholesterol, alanine aminotransferase (ALT), and aspartate aminotransferase (AST). Measurements of plasma levels of cholesterol, ALT, and AST were performed as described in Zhao et al., ACS Cent. Sci. 3, 639-646, 2017. Briefly, plasma was separated from whole blood immediately by centrifugation of the blood samples at 5,000 rpm for 10 min at 4° C., and was then stored at −80° C. Plasma total cholesterol was measured using an enzymatic fluorometric method kit (Amplex® red cholesterol assay kit, No. A12216, Life Technologies) according to the manufacturer's instructions. Plasma ALT and AST concentrations were measured using Infinity ALT (GPT) and AST (GOT) liquid stable assays, respectively, which are colorimetric kinetic assays (Thermo Scientific). Assays were performed in accordance with the manufacturer's recommendations, adjusting the reagent volumes (20 μL plasma+200 μL reagent, 0.69 cm light pathlength of the solution in the well) for analysis of samples in 96-well flat-bottom microplate format.
Plasma lipoprotein profile. Pooled plasma (240 μL total, 30 μL from each, n=8 fasted mice per group) from the two-week blood draw was used for fast protein liquid chromatography (FPLC) analysis. Lipoproteins were separated by using 3 Superdex 200 10/30 columns connected in series (GE Healthcare). The plasma was centrifuged at 11,000 rpm for 10 min at room temperature to remove particulates (floating material was gently mixed into liquid before removing the supernatant for FPLC injection). 200 μL of the pooled plasma was injected on the system eluted with 10 mM tris-HCl buffer, pH 7.4, containing 1 mM EDTA and 150 mM NaCl; a flow rate of 0.5 ml/min and fraction size of 0.5 mL were used.

SMILES	ranked distance to chow [1]	reduction in cholesterol in the CHD mice [2]	HDL-cholesterol levels [2]	levels of VLDL and LDL [2]	reduction of plasma total cholesterol compared to the untreated WD group [2] [%]
CC(C)C[C@@H]1NC(=O)[C@@H](Cc2c[nH]c3ccccc23)NC(=O)[C@H](CCCNC(=N)N)NC(=O)[C@@H](CCC(=O)O)NC(=O)[C@H](CCC(N)=O)NC(=O)[C@@H](CCC(=O)O)NC(=O)[C@H](CCCNC(=N)N)NC(=O)[C@@H](Cc2c[nH]c3ccccc23)NC1=O [c[wLwReQeR]] (cyclo([dW]L[dW]R[dE]Q[dE]R))	14	no analogous peptide-mediated reduction	higher	marked reduction	36
CC(C)C[C@@H]1NC(=O)[C@@H](Cc2c[nH]c3ccccc23)NC(=O)[C@H](CCCCN)NC(=O)[C@@H](Cc2c[nH]cn2)NC(=O)[C@H](CO)NC(=O)[C@@H](Cc2c[nH]cn2)NC(=O)[C@H](CCCCN)NC(=O)[C@@H](Cc2c[nH]c3ccccc23)NC1=O [c[wLwKhShK]] (cyclo([dW]L[dW]K[dH]S[dH]K))	2	no analogous peptide-mediated reduction	higher	marked reduction	37
